Here are results for 14 compounds from patent US10219516B2, “Molecules having pesticidal utility, and intermediates, compositions, and processes, related thereto” (priority 2015, dated 2019).

Common to all, as to assay type: in vivo
For test [1], the system named is Yellow Fever Mosquito (Aedes aegypti, AEDSAE). In words: Bioassay on Yellow Fever Mosquito (YFM), 96-well plate larval assay. Conditions: for YFM rating: Yellow Fever Mosquito, 96-well plate larval assay; for YFM (Biological Results, rating): Species YFM (Yellow Fever Mosquito). The gist of the method:
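Compound stocks at 4000 ppm in DMSO were diluted with 90:10 water/acetone, and 15 μL aliquots were dispensed into six replicate plates. About 1-day-old larvae in liver-powder water were added per well. Plates were covered and held at room temperature for 3 days before each well was scored for mortality.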

For test [2], the system named is Green Peach Aphid (Myzus persicae, MYZUPE). In words: Bioassay on Green Peach Aphid (GPA), foliar spray on infested cabbage seedlings. Conditions: 72 h. The gist of the method: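 Cabbage seedlings (2-3 true leaves) infested with 20-50 wingless adult and nymph aphids one day before treatment; sprayed to runoff at 200 ppm in 0.025% Tween 20 water with 20% acetone/methanol, four pots per treatment. Held three days at about 25° C; live aphids counted, % control by Abbott's correction versus solvent check.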

Test [3] relates to Cabbage Looper (Trichoplusia ni, TRIPNI). Kind of test: Bioassay on Cabbage Looper (CL), 128-well diet tray assay. To be noted: Trichoplusia ni. The gist of the method:
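Using eight wells per molecule, artificial diet was dosed at 50 μg/cm^2 with compound in 90:10 acetone-water and dried before one to five second-instar larvae were added per well. Covered vented trays were kept at 25° C. with 14:10 light-dark for five to seven days, then per-well percent mortality was recorded and averaged.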

Test [4] concerns Beet Armyworm (Spodoptera exigua, LAPHEG). In words: Bioassay on Beet Armyworm (BAW), 128-well diet tray assay. The gist of the method:
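Second-instar larvae, one to five per well, placed on artificial diet surface-treated with 50 μg/cm^2 compound applied in 90:10 acetone-water and dried. Held 5–7 days at 25° C., 14:10 light-dark. Percent mortality recorded per well and averaged over eight wells.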

Setting [5] is: Green Peach Aphid, foliar spray on cabbage seedlings, read-out: GPA rating.
Where [6] appears, read: Cabbage Looper, 128-well diet tray assay, read-out: CL rating.
The mark [7] stands for this setting: Beet Armyworm, 128-well diet tray assay, read-out: BAW rating.
Setting [8] is: foliar, Species GPA (Green Peach Aphid), read-out: GPA (Biological Results, rating).
Where [9] appears, read: Species CL (Cabbage Looper), read-out: CL (Biological Results, rating).
Where [10] appears, read: Species BAW (Beet Armyworm), read-out: BAW (Biological Results, rating).

Read-outs that look alike come from different tables or passages of the source.

On to `COCC(=O)N(C)c1ccc(NC(=O)c2cc(NC(=O)[C@H]3[C@H](c4cc(Cl)cc(Cl)c4)C3(Cl)Cl)ccc2Cl)cc1` (relative stereo) [PF31, trans-2-Chloro-5-(2,2-dichloro-3-(3,5-dichlorophenyl)cyclopropane-1-carboxamido)-N-(4-(2-methoxy-N-methylacetamido)phenyl)benzamide], for which the YFM rating entry in test [1] was “B (More than 0-Less than 80)”. Moreover, the pest or weed control at 200 µg/mL in test [2] (setting [5]) lay in the range of 0 to 80%. For the same compound, the pest or weed control at 50 µg/cm2 in test [3] (setting [6]) and in test [4] (setting [7]) was 50 to 100% in each case.
As to `CN(C(=O)c1cc(NC(=O)[C@H]2[C@H](c3ccc(Cl)c(F)c3)C2(Cl)Cl)ccc1Cl)c1ccc(F)cc1` (relative stereo) [PF35, trans-2-Chloro-5-(2,2-dichloro-3-(4-chloro-3-fluorophenyl)cyclopropane-1-carboxamido)-N-(4-fluorophenyl)-N-methylbenzamide], the YFM rating entry in test [1] is listed as “A (80-100)”. The pest or weed control at 200 µg/mL in test [2] (setting [5]) lay within 80 to 100%. The pest or weed control at 50 µg/cm2 in test [3] (setting [6]) and in test [4] (setting [7]) was 50 to 100% throughout.
`CN(C(=O)c1cc(NC(=O)[C@H]2[C@H](c3cc(Cl)cc(Br)c3)C2(Cl)Cl)ccc1Cl)c1ccc(F)cc1` (relative stereo) [PF38, trans-5-(3-(3-Bromo-5-chlorophenyl)-2,2-dichlorocyclopropane-1-carboxamido)-2-chloro-N-(4-fluorophenyl)-N-methylbenzamide]: the YFM rating entry in test [1] is “A (80-100)”. For the same compound, the pest or weed control at 200 µg/mL in test [2] (setting [5]) is 80 to 100%. Also, the pest or weed control at 50 µg/cm2 in test [3] (setting [6]) and in test [4] (setting [7]) was 50 to 100% each time.
With `N#Cc1cc(F)ccc1NC(=O)c1cc(NC(=O)[C@H]2[C@H](c3cc(Cl)cc(Cl)c3)C2(Cl)Cl)ccc1Cl` (relative stereo) [PF67, trans-2-Chloro-N-(2-cyano-4-fluorophenyl)-5-(2,2-dichloro-3-(3,5-dichlorophenyl)cyclopropane-1-carboxamido)benzamide], the YFM rating result in test [1] is “B (More than 0-Less than 80)”. The pest or weed control at 200 µg/mL in test [2] (setting [5]) was in the range of 80 to 100%. Also, the pest or weed control at 50 µg/cm2 in test [3] (setting [6]) and in test [4] (setting [7]) was 50 to 100% throughout.
In the case of `O=C(Nc1ccc(F)cc1C(F)(F)F)c1cc(NC(=O)[C@H]2[C@H](c3cc(Cl)cc(Cl)c3)C2(Cl)Cl)ccc1Cl` (relative stereo) [PF69, trans-2-chloro-5-(2,2-dichloro-3-(3,5-dichlorophenyl)cyclopropane-1-carboxamido)-N-(4-fluoro-2-(trifluoromethyl)phenyl)benzamide], the YFM rating entry in test [1] is “B (More than 0-Less than 80)”. Also, the pest or weed control at 200 µg/mL in test [2] (setting [5]) lay within 80 to 100%. In addition, the pest or weed control at 50 µg/cm2 in test [3] (setting [6]) and in test [4] (setting [7]) was 50 to 100% in each case.
For the compound `O=C(Nc1cccc(C(F)(F)F)c1)c1cc(NC(=O)[C@H]2[C@H](c3cc(Cl)cc(Cl)c3)C2(Cl)Cl)ccc1Cl` (relative stereo) [PF71, trans-2-Chloro-5-(2,2-dichloro-3-(3,5-dichlorophenyl)cyclopropane-1-carboxamido)-N-(3-(trifluoromethyl)phenyl)benzamide], the YFM rating entry in test [1] is reported as “A (80-100)”. For the same compound, the pest or weed control at 200 µg/mL in test [2] (setting [5]) lay within 0 to 80%. Also, the pest or weed control at 50 µg/cm2 in test [3] (setting [6]) and in test [4] (setting [7]) was 50 to 100% throughout.
For `O=C(Nc1cccc([N+](=O)[O-])c1)c1cc(NC(=O)[C@H]2[C@H](c3cc(Cl)cc(Cl)c3)C2(Cl)Cl)ccc1Cl` (relative stereo) [PF73, trans-2-Chloro-5-(2,2-dichloro-3-(3,5-dichlorophenyl)cyclopropane-1-carboxamido)-N-(3-nitrophenyl)benzamide], in test [1], the YFM rating entry is “B (More than 0-Less than 80)”. Besides, the pest or weed control at 200 µg/mL in test [2] (setting [5]) was in the range of 80 to 100%. Moreover, the pest or weed control at 50 µg/cm2 in test [3] (setting [6]) and in test [4] (setting [7]) was 50 to 100% throughout.
Regarding `O=C(Nc1ccsc1)c1cc(NC(=O)[C@H]2[C@H](c3cc(Cl)cc(Cl)c3)C2(Cl)Cl)ccc1Cl` (relative stereo) [PF152, trans-2-Chloro-5-(2,2-dichloro-3-(3,5-dichlorophenyl)cyclopropane-1-carboxamido)-N-(thiophen-3-yl)benzamide], in test [1], the YFM rating entry is on record as “B (More than 0-Less than 80)”. The pest or weed control at 200 µg/mL in test [2] (setting [5]) is 0 to 80%. For the same compound, the pest or weed control at 50 µg/cm2 in test [3] (setting [6]) and in test [4] (setting [7]) was 50 to 100% throughout.
For the compound `O=C(Nc1ccc(F)cc1)c1cc(NC(=O)[C@H]2[C@H](c3cc(Cl)cc(Cl)c3)C2(Cl)Cl)ccc1Cl` [F165, 2-Chloro-5-((1R,3R)-2,2-dichloro-3-(3,5-dichlorophenyl)cyclopropane-1-carboxamido)-N-(4-fluorophenyl)benzamide], the “YFM (Biological Results, rating)” value in test [1] is recorded as “B (More than 0-Less than 80)”. The pest or weed control at 200 µg/mL in test [2] (setting [8]) lay within 80 to 100%. Moreover, the pest or weed control at 50 µg/cm2 in test [3] (setting [9]) and in test [4] (setting [10]) was 50 to 100% in each case.
Consider `O=C(Nc1ccc(F)cc1)c1cc(NC(=O)[C@H]2[C@H](c3cc(Cl)c(Cl)c(Cl)c3)C2(Cl)Cl)ccc1Cl` [F279, 2-Chloro-5-((1R,3R)-2,2-dichloro-3-(3,4,5-trichlorophenyl)cyclopropane-1-carboxamido)-N-(4-fluorophenyl)benzamide], for which the “YFM (Biological Results, rating)” value in test [1] is on record as “A (80-100)”. In addition, in test [2] (setting [8]), the pest or weed control at 200 µg/mL lay in the range of 80 to 100%. Moreover, the pest or weed control at 50 µg/cm2 in test [3] (setting [9]) and in test [4] (setting [10]) was 50 to 100% each time.
As for `O=C(Nc1ccc(F)cc1)c1cc(NC(=O)[C@@H]2[C@@H](c3cc(Cl)c(Cl)c(Cl)c3)C2(Cl)Cl)ccc1Cl` [F280, 2-Chloro-5-((1S,3S)-2,2-dichloro-3-(3,4,5-trichlorophenyl)cyclopropane-1-carboxamido)-N-(4-fluorophenyl)benzamide], the “YFM (Biological Results, rating)” value in test [1] is reported as “A (80-100)”. For the same compound, in test [2] (setting [8]), the pest or weed control at 200 µg/mL is 0 to 80%. The pest or weed control at 50 µg/cm2 in test [3] (setting [9]) and in test [4] (setting [10]) was 50 to 100% throughout.
As to `C#CCN(C(=O)c1cc(NC(=O)[C@H]2[C@H](c3ccc(F)c(Cl)c3)C2(Cl)Cl)ccc1Cl)c1ccc(F)cc1F` [F414, 2-Chloro-5-((1R,3R)-2,2-dichloro-3-(3-chloro-4-fluorophenyl)cyclopropane-1-carboxamido)-N-(2,4-difluorophenyl)-N-(prop-2-yn-1-yl)benzamide], in test [1], the YFM rating entry is given as “A (80-100)”. In addition, the pest or weed control at 200 µg/mL in test [2] (setting [5]) lay within 80 to 100%. Further, the pest or weed control at 50 µg/cm2 in test [3] (setting [6]) and in test [4] (setting [7]) was 50 to 100% in each case.
In the case of `O=C(Nc1ccc2ncsc2c1)c1cc(NC(=O)C2C(c3cc(Cl)cc(Cl)c3)C2(Cl)Cl)ccc1Cl` (stereo not drawn) [F434, N-(Benzo[d]thiazol-6-yl)-2-chloro-5-(trans)-2,2-dichloro-3-(3,5-dichlorophenyl)cyclopropane-1-carboxamido)benzamide], in test [1], the YFM rating entry was “A (80-100)”. In addition, in test [2] (setting [5]), the pest or weed control at 200 µg/mL was 0 to 80%. Moreover, the pest or weed control at 50 µg/cm2 in test [3] (setting [6]) and in test [4] (setting [7]) was 50 to 100% throughout.
For the compound `O=C(Nc1ccc2nc(Cl)[nH]c2c1)c1cc(NC(=O)C2C(c3cc(Cl)cc(Cl)c3)C2(Cl)Cl)ccc1Cl` (stereo not drawn) [F438, 2-Chloro-N-(2-chloro-1H-benzo[d]imidazol-6-yl)-5-(trans)-2,2-dichloro-3-(3,5-dichlorophenyl)cyclopropane-1-carboxamido)benzamide], the YFM rating result in test [1] is reported as “B (More than 0-Less than 80)”. Besides, in test [2] (setting [5]), the pest or weed control at 200 µg/mL is 0 to 80%. The pest or weed control at 50 µg/cm2 in test [3] (setting [6]) and in test [4] (setting [7]) was 50 to 100% in each case.
